Source: patent US8501911B2, “Methods of reducing inflammation and mucus hypersecretion” (Biomarck Pharmaceuticals, Ltd, priority 1999, dated 2013)
“And” between values parts separate entries of the source, which are not always exact repeats. Identical values can stand only once. Like-named read-outs stand apart in the source and are kept apart here. Residues, ends and D or L forms follow the SMILES beside them. *: point of attachment. Myristoyl = CCCCCCCCCCCCCC(=O)*

What was measured:
[1] = system: NHBE cells; test: PMA+8-Br-cGMP-induced mucin secretion from NHBE cells (ELISA); type: cell-based, human; details: inhibitor 500 nM, 15 min preincubation, then PMA 100 nM+8-Br-cGMP 1 μM 15 min
Procedure: Peptide Blocking Studies—NHBE cells were preincubated with either the MANS or the RNS peptide (1-100 μM) for 15 min, and then PMA (100 nM)+8-Br-cGMP (1 μM) or UTP (100 μM) was added, and cells were incubated for an additional 15 min or 2 h. respectively. Mucin secretion was measured by ELISA and experimental results are designated as Results-I-2B-1 and Results-I-2B-2, as follows. […]
(§1) Measurement of Mucin Secretion by ELISA—Before collection of “base line” and “test” mucin samples, the accumulated mucus at the apical surface of the cells was removed by washing with phosphate-buffered saline, pH 7.2. To collect the base-line secretion, cells were incubated with medium alone, and secreted mucin in the apical medium was collected and reserved. Cells were rested for 24 h and then exposed to medium containing the selected stimulatory and/or inhibitory reagents (or appropriate controls), after which secreted mucin was collected and reserved as the test sample. Incubation times for the base line and the test were the same but varied depending on the test reagent utilized. Both base line and test secretions were analyzed by ELISA using an antibody capture method as known in the art. See, e.g., Harlow et al., Antibodies: A Laboratory Manual, pp. 570-573, Cold Spring Harbor Laboratory, Cold Spring Harbor, N.Y. (1988). The primary antibody for this assay was 17Q2 (Babco, Richmond, Calif.), a monoclonal antibody that reacts specifically with a carbohydrate epitope on human airway mucins. The ratio of test/base-line mucin, which is similar to a “secretory index”, was used to quantify mucin secretion, allowing each culture dish to serve as its own control and thus, minimizing deviation caused by variability among culture wells. Wright et al., Am. J. Physiol. 271, L854-L861 (1996). Levels of mucin secretion were reported as percentage of the medium control.
MARCKS-related Peptides—Both the myristoylated N-terminal sequence (MANS) and the random N-terminal sequence (RNS) peptides were synthesized at Genemed Synthesis, Inc. (San Francisco, Calif.), then purified by high pressure liquid chromatography (>95% pure), and confirmed by mass spectroscopy with each showing one single peak with an appropriate molecular mass. The MANS peptide consisted of sequence identical to the first 24 amino acids of MARCKS, i.e. the myristoylated N-terminal region that mediates MARCKS insertion into membranes, MA-[…] (SEQ ID NO: 1) (where MA=N-terminal myristate chain). The corresponding control peptide (RNS) contained the same amino acid composition as the MANS but arranged in random order, MA-[…] (SEQ ID NO: 26). The presence of the hydrophobic myristate moiety in these synthetic peptides enhances their permeability to the plasma membranes, enabling the peptides to be taken up readily by cells. To determine the effects of these peptides on mucin secretion, cells were preincubated with the peptides for 15 min prior to addition of secretagogues, and mucin secretion was then measured by ELISA.
Antisense Oligonucleotides—MARCKS antisense oligonucleotide and its corresponding control oligonucleotide were synthesized at Biognostik GmbH (Gottingen, Germany). NHBE cells were treated with 5 μM antisense or control oligonucleotide apically for 3 days (in the presence of 2 μg/ml lipofectin for the first 24 h). Cells were then incubated with secretagogues, and mucin secretion was measured by ELISA. Total RNA and protein were isolated from treated cells. MARCKS mRNA was assessed by Northern hybridization according to conventional procedures using human MARCKS cDNA as a probe. MARCKS protein level was determined by Western blot using purified anti-MARCKS IgG1 (clone 2F12) as the primary detection antibody.
The effect on mucus secretion of a myristoylated peptide containing the first 24 amino acids of the human MARCKS protein (MANS; myristoylated N-terminal sequence; SEQ ID NO: ) was tested. Cultured normal human bronchial epithelial cells as described above were used. […]

[2] = system: NHBE cells; test: UTP-induced mucin secretion from NHBE cells (ELISA); type: cell-based, human; details: for activity at 100 µM: Homo sapiens, NHBE
Procedure: In Results-I-1D, NHBE cells were preincubated with the indicated inhibitor for 15 min and then stimulated with 100 μM UTP for 2 h. Secreted mucin in response to the treatment was collected and assayed by ELISA. Data are presented as mean±S.E. (n=6 at each point).
UTP is a well defined pathophysiologically relevant mucin secretagogue. Lethem ct al., Am. J. Respir. Cell Mol. Biol. 9, 315-322 (1993). […] To determine whether PKC and PKG were involved in regulation of mucin secretion in response to a pathophysiological stimulus, effects of PKC/PKG inhibitors on UTP-induced mucin secretion were investigated. NHBE cells were preincubated with various inhibitors for 15 min and then exposed to UTP (100 μM) plus the inhibitor for 2 h. The secreted mucin was measured by ELISA. […] Apparently, mucin secretion in NHBE cells may be regulated by a signaling mechanism involving both PKC and PKG.
Peptide Blocking Studies—NHBE cells were preincubated with either the MANS or the RNS peptide (1-100 μM) for 15 min, and then PMA (100 nM)+8-Br-cGMP (1 μM) or UTP (100 μM) was added, and cells were incubated for an additional 15 min or 2 h. respectively. Mucin secretion was measured by ELISA and experimental results are designated as Results-I-2B-1 and Results-I-2B-2, as follows.
PP2A is an essential component of the mucin secretory pathway. NHBE cells were preincubated with the indicated concentration of fostriecin, okadaic acid (500 nM), or medium alone for 15 min and then stimulated with PMA (100 nM)+8-Br-cGMP (1 μM) for 15 min or with UTP (100 μM) for 2 h. Secreted mucin was measured by ELISA. […] Thus, dephosphorylation of MARCKS by a PKG-activated PP2A appears to be an essential component of the signaling pathway leading to mucin granule exocytosis.
as §1
These experiments were carried out similarly to those described in Example 7. To test for stimulated secretion, the cells were exposed apically and basolaterally to uridine 5′-triphosphate (UTP) at a concentration of 0.1 mM in media. Cells were pre-incubated for 15 minutes with the MANS peptide and test cultures were then co-incubated with the MANS peptide and UTP for 45 minutes.
NHBE cells were pre-incubated with okadaic acid (500 nM) for 15 min at 37° C./5% CO2, then stimulated with PMA (100 nM)+8-Br-cGMP (1 μM) for 15 min, or with UTP (0.1 mM) for 2 hours. Secreted mucin in the apical medium was collected and assayed by ELISA. […]

[3] = system: human neutrophils; test: Human neutrophil chemotactic migration assay; type: cell-based; details: test peptide 50 μM; fMLP 100 nM; 0 = inactive
Procedure: Human neutrophils were isolated from heparinized whole blood collected from healthy adult donors via cephalic venipuncture by a slightly modified method as described by Akasaki et al., 1999 (Akasaki T, Koga H, and Sumimoto H., Phosphoinositide 3-kinase-dependent and -independent activation of the small GTPase Rac2 in human neutrophils, J. Biol. Chem. 274:18055-18059, 1999). The blood was mixed with dextran (final concentration 1.4% dextran) and then allowed to settle for 60 minutes, after which time the leukocyte rich plasma was collected and layered onto 5 mL of Ficoll-Paque PLUS in 15 ml, conical tubes. The plasma was centrifuged at 1800 rpm for 20 minutes at room temperature. The residual erythrocytes were lysed utilizing a hypotonic saline and the remaining neutrophils were re-suspended in Hank's balanced salt solution containing 20 mM HEPES and 8.9 mM sodium bicarbonate without calcium or magnesium (HBSS), yielding neutrophils that were greater than 98% pure and greater than 99% viable.
Neutrophil migration assay was performed according to the method described by Frevert C W, Wong V A, Goodman R B, Goodwin R, and Martin T R., Rapid fluorescence-based measurement of neutrophil migration in vitro, J. Immunol. Methods, 213:41-52, 1998. Human neutrophils were labeled with the fluorescent dye calcein for 30 minutes at room temperature. Cells were then washed and resuspended in a migration buffer containing HBSS with 2% FCS. Cells were treated with buffer alone or with the indicated test peptide (50 μM) for 30 minutes at 37° C. Treated cells (1×10^4 cells) were then placed on the upper side of a ChemoTx® chemotaxis plate (Neuroprobe, Gaithersburg, Md.) membrane (2 μm pore size). Lower wells of the plate were filled with migration buffer alone or with buffer containing fMLP (100 nM), LTB4 (100 nM), or PAF (100 nM). Wells containing 1×10^4 labeled cells were used as standards to calculate migration percentage. Cells were allowed to migrate for 1 hour at 37° C. After incubation, cells on the top of the filter were washed away with PBS. Followed by this, 0.5 mM EDTA was added to the top of the filter for 5 min to detach adherent cells and the membrane was again washed. The plate was then centrifuged at 1000 rpm for 1 min. The filter was removed and the fluorescence was measured in the lower wells (485 nm excitation, 530 nm emission wavelength) using an fMax fluorescence plate reader (Molecular Devices, Sunnyvale, Calif.). Percent migration was determined by dividing the fluorescence of each well by the fluorescence of the standard wells containing 1×10^4 labeled cells. A lesser number of migrated neutrophils in the bottom compartment is indicative of the test peptide being an inhibitor of inflammation.

[4] = system: MARCKS; test: MARCKS phosphorylation in NHBE cells (radiolabeled immunoprecipitation assay); type: cell-based, human
Procedure: NHBE cells were labeled with [^32 P]orthophosphate and then exposed to the reagents: (a) Rp-8-Br-PET-cGMP (100 μM); (b) okadaic acid (500 nM); (c) 8-Br-cGMP (1 μM); and (d) PMA (100 nM). MARCKS phosphorylation in response to the treatments was evaluated by immunoprecipitation assay.
To reveal molecular events by which MARCKS links kinase activation to mucin secretion, phosphorylation of MARCKS in response to PKC/PKG activation was investigated in depth, and results are presented as Results-I-4A. […] Once phosphorylated, MARCKS was translocated from the plasma membrane to the cytoplasm. More specifically, the activation of PKC results in MARCKS phosphorylation in NHBE cells. Cells were labeled with [^32 P]orthophosphate for 2 h and then exposed to the stimulatory and/or inhibitory reagents (see below). MARCKS phosphorylation in response to the treatments was evaluated by immunoprecipitation with the following specifics, designated Results-I-4A:
[^32P]phosphate, cells were preincubated for 2 h in phosphate-free Dulbecco's modified Eagle's medium containing 0.2% bovine serum albumin and then labeled with 0.1 mCi/ml [^32 P]orthophosphate (9000 Ci/mmol, PerkinElmer Life Sciences) for 2 h. For labeling with [^3H]myristic acid or ^3H-amino acids, cells were incubated overnight in medium containing 50 μCi/ml [^3H]myristic acid (49 Ci/mmol, PerkinElmer Life Sciences) or 0.2 mCi/ml [^3H]leucine (159 Ci/mmol, PerkinElmer Life Sciences) plus 0.4 mCi/ml [^3H]proline (100 Ci/mmol, PerkinElmer Life Sciences). Following labeling, cells were exposed to stimulatory reagents for 5 min. When an inhibitor was used, cells were preincubated with the inhibitor for 15 min prior to stimulation. At the end of the treatments, cells were lysed in a buffer containing 50 mM Tris-HCl (pH 7.5), 150 mM NaCl, 1 mM EDTA, 10% glycerol, 1% Nonidet P-40, 1 mM phenylmethylsulfonyl fluoride, 1 mM benzamidine, 10 μg/ml pepstatin A, and 10 μg/ml leupeptin. Trichloroacetic acid precipitation and scintillation counting may determine the radiolabeling efficiency in each culture. Immunoprecipitation of MARCKS protein was carried out according to the method of Spizz and Blackshear using cell lysates containing equal counts/min. Spizz et al., J. Biol. Chem. 271, 553-562 (1996). Precipitated proteins were resolved by 8% SDS-polyacrylamide gel electrophoresis and visualized by autoradiography. Anti-human MARCKS antibody (2F12) and nonimmune control antibody (6F6) were used in this assay.
Phosphorylation of MARCKS by PMA was attenuated by Calphostin C (500 nM). NHBE cells also contained substantial amounts of cGMP-dependent protein kinase type 1α (PKG-1α) activity, which was localized to the cytosolic fraction. […] In addition, the phosphorylation of MARCKS induced by PMA was reversed by incubation with 8-Br-cGMP (10 μM).

[5] = inhibitor 500 nM, 15 min preincubation, then UTP 100 μM 2 h

Molecule: CCCCCCOC(=O)[C@]1(O)C[C@@H]2O[C@@]1(C)n1c3ccccc3c3c4c(c5c6ccccc6n2c5c31)C(=O)NC4 [KT5720]
- Mucin secretion as % of control [1]: did not affect
- Mucin secretion as percent of control [2, 5]: 157% and 160%

Molecule: O=C1C(Nc2ccccc2)=CC(=O)c2ncccc21 [LY83583]
- Mucin secretion as percent of control ([2]; inhibitor 50 μM, 15 min preincubation, then UTP 100 μM 2 h): 111% and 112%

Molecule: CCCCCCCCCCCCCC(=O)NCC(=O)N[C@@H](C)C(=O)N[C@@H](CCC(N)=O)C(=O)N[C@@H](Cc1ccccc1)C(=O)N[C@@H](CO)C(=O)N[C@@H](CCCCN)C(=O)N[C@H](C(=O)N[C@@H](C)C(=O)O)[C@@H](C)O [SEQ ID NO: 17, N-myristoyl-GAQFSKTA] (Myristoyl-GAQFSKTA-OH; C-terminus assumed)
- Neutrophil Migration (% Inhibition), fMLP [3]: 92.2%

Molecule: O=c1ccn([C@@H]2O[C@H](COP(=O)(O)OP(=O)(O)OP(=O)(O)O)[C@@H](O)[C@H]2O)c(=O)[nH]1 [UTP, uridine 5′-triphosphate]
- activity at 100 µM ([2]; 0.75 h, 0.1 mM UTP 45 min, no peptide (Results-M-2), read-out: Mucin secretion, % of control levels): 159%
- activity at 100 µM ([2]; 2 h, UTP 100 μM (0.1 mM) 2 h, no inhibitor, read-out: Mucin secretion as percent of control): 159%
- Mucin secretion as percent of control ([2]; UTP 100 μM (0.1 mM) 2 h, no inhibitor): 156% and 161% and 152%

Molecule: Calphostin C
- MARCKS phosphorylation (band in immunoprecipitation assay) ([4]; inhibitor 500 nM + 100 nM PMA): attenuated
- MARCKS phosphorylation (band in immunoprecipitation assay) ([4]; inhibitor 500 nM alone): dark band
- Mucin secretion as percent of control [2, 5]: 120%
- Mucin secretion as percent of control ([2]; inhibitor 500 nM, 15 min preincubation, then UTP 100 μM 2 h, listed as calphostin C): 121%
